PubChem BioAssay (NCI)
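Tested at 5 concentrations; 48 h exposure; 96-well plates; endpoints linearly interpolated, else capped at highest concentration. At the GI50, growth is halved. TGI: total growth inhibition.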

Assays:
SN12K1 renal = test: NCI tumour cell line growth inhibition, 48 h
P388 leukemia = test: NCI tumour cell line growth inhibition, 48 h

| SMILES | TGI (SN12K1 renal) [µM] | TGI (P388 leukemia) [µM] | GI50 (SN12K1 renal) [µM] | GI50 (P388 leukemia) [µM] |
| --- | --- | --- | --- | --- |
| OC(C1CO1)C(O)C1CO1 (stereo not given) | 150 | 150 | – | – |
| CCOC(=O)NC1=C(N2CC2)C(=O)C(NC(=O)OCC)=C(N2CC2)C1=O | 15.7 | 14 | – | – |
| NC(=S)N/N=C/c1ccc(O)cn1 | > 1500 | 8.3 | – | – |
| CC(C)[NH-].CC(C)[NH-].O.O.[Cl][Pt+2][Cl] | 150 | 37.9 | 31.1 | 6.66 |
